The pIC50 is the IC50 on a negative log10 scale, so that one unit is a factor of ten. A word on the IC50: it is the concentration that gives 50% inhibition.

From US11459330B2, “Substituted bicyclic heterocyclic compounds as PRMT5 inhibitors” (LUPIN LIMITED, priority 2017, dated 2022) come the findings set out here.

pIC50: −log10 of the molar value.

One test has as its system PANC-1 cells. Description: Anti-cancer assay (Panc-1), cell viability CellTiterGlo. The test is classed as cell-based. As to conditions: Homo sapiens, PANC-1, 168 h, 7 days; for pIC50: activity range 20 nM to 100 nM; for IC50: activity range, lower bound in pM, upper bound in nM. As for the experimental part: Anticancer Activity Assay
Z-138 cells were seeded at a density of 2000-3000 cells per well in culture media (IMDM+10% FBS). PANC-1 (ATCC, CRL-1469™) and MIA PaCa-2 (ATCC, CRL-1420™) cells were seeded at a density of 200-300 cells per well in culture media (DMEM+10% FBS). Cells were seeded in opaque, flat bottomed tissue culture grade 96-well plates and Z-138 cells (suspension) were seeded and treated on the same day with various concentrations of test compounds. PANC-1 and MIA PaCa-2 cells, being adherent, were kept for overnight settlement at standard cell culture conditions (37° C., 5% CO2). On the following day, cells were treated with various concentrations of test compounds. Cells were treated with test compounds for a period of 96 h, 7 days and 10 days, for Z-138 cells, PANC-1 cells and MIA PaCa-2 cells, respectively. Cell viability was assessed using CellTiterGlo™ (Promega, USA) as per manufacturer's instructions. Relative Light Units (RLU) were read in Synergy™ 2 reader (Biotek, USA). The assay measures cellular ATP as an indicator of cell viability. RLU is proportional to the number of viable cells in the respective well.
% inhibition of cell viability was calculated relative to the vehicle control samples containing media with 0.1% DMSO alone as per the formula below. (Avg. of Untreated Control−Avg. of Test)×100 Avg. of Untreated Control
The IC50 values of individual compounds were calculated with Non Linear Regression Analysis using Graph Pad Prism (Graph Pad software, Inc, USA).
Anti-Cancer Assay (Panc-1)

The target of another test is PRMT5:MEP50 (Homo sapiens, UniProt O14744). Description: PRMT5 biochemical HTRF assay (Biochemical Assay Protocol 1 / 2). Conditions: biotinylated H4R3 substrate, 1 μM SAM, protocol 1 or 2 not given, activity range 300 pM to 950 pM, read-out: IC50 (PRMT5 inhibition), activity range. As for the experimental part: Biochemical Assay Protocol 1
Sequence of PRMT5:MEP50 (O14744 whole entry, the tested form may be a part): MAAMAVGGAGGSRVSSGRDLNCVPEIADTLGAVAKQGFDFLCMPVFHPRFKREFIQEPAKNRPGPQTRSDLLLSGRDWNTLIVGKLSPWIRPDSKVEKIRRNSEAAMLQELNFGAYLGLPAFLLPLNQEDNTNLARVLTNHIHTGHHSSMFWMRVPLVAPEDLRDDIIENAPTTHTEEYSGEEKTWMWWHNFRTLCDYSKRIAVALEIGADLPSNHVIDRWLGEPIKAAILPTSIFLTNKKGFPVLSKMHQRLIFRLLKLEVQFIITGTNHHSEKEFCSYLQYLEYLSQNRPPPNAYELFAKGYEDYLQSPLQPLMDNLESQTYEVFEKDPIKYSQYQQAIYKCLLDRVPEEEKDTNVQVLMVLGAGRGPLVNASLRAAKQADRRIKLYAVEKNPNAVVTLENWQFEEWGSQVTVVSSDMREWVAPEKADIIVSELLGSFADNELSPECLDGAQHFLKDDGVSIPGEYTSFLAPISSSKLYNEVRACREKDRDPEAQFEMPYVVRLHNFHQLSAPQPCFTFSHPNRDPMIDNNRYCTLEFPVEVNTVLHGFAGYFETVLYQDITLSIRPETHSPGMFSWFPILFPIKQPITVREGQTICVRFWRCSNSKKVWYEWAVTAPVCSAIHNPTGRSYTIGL
Sequence of PRMT5:MEP50 (Q9BQA1 whole entry partner, the tested form may be a part): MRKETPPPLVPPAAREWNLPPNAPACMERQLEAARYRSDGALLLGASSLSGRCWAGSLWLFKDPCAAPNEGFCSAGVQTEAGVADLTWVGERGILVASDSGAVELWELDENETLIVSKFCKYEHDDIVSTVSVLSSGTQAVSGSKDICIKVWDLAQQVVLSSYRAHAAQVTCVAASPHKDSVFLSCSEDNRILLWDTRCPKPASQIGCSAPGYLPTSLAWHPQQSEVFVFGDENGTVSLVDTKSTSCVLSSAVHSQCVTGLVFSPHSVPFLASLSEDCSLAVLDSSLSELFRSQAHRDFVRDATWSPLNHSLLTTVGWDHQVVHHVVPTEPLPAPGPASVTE
(§1) Inhibitory effect of compounds on PRMT5 was assessed using HTRF detection technology in biochemical assay. Biotinylated H4R3 (residues 1-21) was used as a substrate. Compounds were pre-incubated with 15-25 ng PRMT5:MEP50 per well of a 384-well plate for 30 min at room temperature in the assay buffer containing 20 mM Bicine, pH 7.6, 25 mM NaCl, 2 mM DTT, 0.01% Chicken albumin and 0.01% Tween-20. Reaction was initiated by adding 1 μM of SAM and 50 nM biotinylated H4R3. Total assay volume was 15 μL. Reaction was continued for 120 min at room temperature. Then detection solution containing Streptavidin-Eu cryptate, anti-rabbit IgG-XL-665, Histone H4R3 Dimethyl Symmetric (H4R3me2s) Polyclonal Antibody, all prepared in HTRF detection buffer was added and further incubated for 30 min at room temperature. HTRF signal was recorded in PHERAStar microplate reader. Ratio of signal obtained at 665 nm and 620 nm was used to compute the percent inhibition of compound as follows % Inhibition=100−((Test Ratio−Negative control Ratio)/(Positive control Ratio−Negative control Ratio)*100) where Positive control=PRMT5+SAM+H4R3 Negative control=PRMT5+H4R3 Biochemical Assay Protocol 2
as §1, with “2.5” for “15-25”, “4 h” for “120 min”, “control=PRMT5+H4R3” for “control=PRMT5+H4R3 Biochemical Assay Protocol 2”
(In TR-FRET formats the signal depends on donor and acceptor labels being close together.)

Regarding `Nc1nc2cc(CCC3=C[C@@H](n4ccc5c(N)ncnc54)[C@H](O)[C@@H]3O)cc(Cl)c2cc1Cl` [Compound-29, (1S,2R,5R)-3-(2-(2-amino-3,5-dichloroquinolin-7-yl)ethyl)-5-(4-amino-7H-pyrrolo[2,3-d]pyrimidin-7-yl)cyclopent-3-ene-1,2-diol], the pIC50 in the test on PANC-1 cells is 7.00 to 7.70.
On to `C[C@@]1(O)C(CCc2cc(F)c3cc(Cl)c(N)nc3c2)=C[C@@H](n2ccc3c(N)ncnc32)[C@@H]1O` [Compound-37, (1S,2R,5R)-3-(2-(2-amino-3-chloro-5-fluoroquinolin-7-yl)ethyl)-5-(4-amino-7H-pyrrolo[2,3-d]pyrimidin-7-yl)-2-methylcyclopent-3-ene-1,2-diol], for which the IC50 in the test on PANC-1 cells lay in the range of 300 to 20000 pM. Further, on PRMT5:MEP50, the pIC50 is 9.02 to 9.52.
For `CC(Cc1ccc2cc(Br)c(N)nc2c1)[C@@]12C[C@@H]1[C@@H](n1ccc3c(N)ncnc31)[C@H](O)[C@@H]2O` (stereo partly drawn) [76b, (1S,2R,3S,4R,5S)-1-((S)-1-(2-Amino-3-bromoquinolin-7-yl)propan-2-yl)-4-(4-amino-7H-pyrrolo[2,3-d]pyrimidin-7-yl)bicyclo[3.1.0]hexane-2,3-diol], the pIC50 with PANC-1 cells is 7.00 to 7.70.
With `Nc1ccc2cc(F)c(CCC3=C[C@@H](n4ccc5c(N)ncnc54)[C@H](O)[C@@H]3O)cc2n1` [Compound-46, (1S,2R,5R)-3-(2-(2-Amino-6-fluoroquinolin-7-yl)ethyl)-5-(4-amino-7H-pyrrolo[2,3-d]pyrimidin-7-yl)cyclopent-3-ene-1,2-diol], the IC50 with PANC-1 cells lay within 300 to 20000 pM.
Take `CC(Cc1ccc2cc(Cl)c(N)nc2c1)C1=C[C@@H](n2ccc3c(N)ncnc32)[C@H](O)[C@@H]1O` (single isomer, unassigned) [Compound-34b]: the IC50 in the test on PANC-1 cells lay in the range of 300 to 20000 pM. In addition, the pIC50 on PRMT5:MEP50 was 9.02 to 9.52.
For the compound `Cc1ncnc2c1ccn2[C@@H]1C=C(C(C)Cc2cc(F)c3cc(Cl)c(N)nc3c2)[C@@H](O)[C@H]1O` (single isomer, unassigned) [Compound-35a], the IC50 with PANC-1 cells was 300 to 20000 pM.
On to `Nc1nc2cc(CC[C@@]34C[C@@H]3[C@@H](n3ccc5c(N)ncnc53)[C@H](O)[C@@H]4O)ccc2cc1Br` [Compound-73, (1R,2R,3S,4R,5S)-1-(2-(2-Amino-3-bromoquinolin-7-yl)ethyl)-4-(4-amino-7H-pyrrolo [2,3-d]pyrimidin-7-yl)bicyclo[3.1.0]hexane-2,3-diol], for which the IC50 in the test with PANC-1 cells was in the range of 300 to 20000 pM. In addition, the pIC50 at PRMT5:MEP50 was 9.02 to 9.52.
The matching figures for `CC(Cc1ccc2cc(Br)c(N)nc2c1)C1=C[C@@H](n2ccc3c(N)ncnc32)[C@H](O)[C@@H]1O` (single isomer, unassigned) [Compound-7a]: 300 to 20000 pM and 9.02 to 9.52.
Turning to `Nc1ncc2ccn([C@@H]3C=C(CCc4ccc5cc(Cl)c(N)nc5c4)[C@@H](O)[C@H]3O)c2n1` [Compound-30, (1S,2R,5R)-3-(2-(2-amino-3-chloroquinolin-7-yl)ethyl)-5-(2-amino-7H-pyrrolo[2,3-d]pyrimidin-7-yl)cyclopent-3-ene-1,2-diol], the IC50 in the test with PANC-1 cells was in the range of 300 to 20000 pM.
With `Cc1ncnc2c1ccn2[C@@H]1C=C(CCc2ccc3cc(Cl)c(N)nc3c2)[C@@H](O)[C@H]1O` [Compound-21, (1S,2R,5R)-3-(2-(2-amino-3-chloroquinolin-7-yl)ethyl)-5-(4-methyl-7H-pyrrolo[2,3-d]pyrimidin-7-yl)cyclopent-3-ene-1,2-diol], the IC50 in the test on PANC-1 cells lay in the range of 300 to 20000 pM. For the same compound, the pIC50 at PRMT5:MEP50 is 9.02 to 9.52.
For `Cc1cc2ccc(CC[C@@]34C[C@@H]3[C@@H](n3ccc5c(N)ncnc53)[C@H](O)[C@@H]4O)cc2nc1N` [Compound-54, (1R,2R,3S,4R,5S)-1-(2-(2-Amino-3-methylquinolin-7-yl)ethyl)-4-(4-amino-7H-pyrrolo[2,3-d]pyrimidin-7-yl) bicyclo[3.1.0]hexane-2,3-diol], in the test on PANC-1 cells, the IC50 fell in the range of 300 to 20000 pM.
With `Nc1nc2cc(CC[C@@]34C[C@@H]3[C@@H](n3ccc5c(N)ncnc53)[C@H](O)[C@@H]4O)ccc2cc1Cl` [Compound-61, (1R,2R,3S,4R,5S)-1-(2-(2-Amino-3-chloroquinolin-7-yl)ethyl)-4-(4-amino-7H-pyrrolo[2,3-d]pyrimidin-7-yl)bicyclo[3.1.0]hexane-2,3-diol], the IC50 with PANC-1 cells fell in the range of 300 to 20000 pM. The pIC50 on PRMT5:MEP50 is 9.02 to 9.52.
`Nc1nc2cc(CCC3=C[C@@H](n4ccc5c(N)ncnc54)[C@H](O)[C@@H]3O)ccc2cc1Br` [Compound-1, (1S,2R,5R)-3-(2-(2-Amino-3-bromoquinolin-7-yl)ethyl)-5-(4-amino-7H pyrrolo[2,3-d]pyrimidin-7-yl)cyclopent-3-ene-1,2-diol]: the IC50 in the test with PANC-1 cells is 300 to 20000 pM. Also, the pIC50 at PRMT5:MEP50 was 9.02 to 9.52.
On to `CC[C@@]1(O)C(CCc2cc(F)c3cc(Cl)c(N)nc3c2)=C[C@@H](n2ccc3c(N)ncnc32)[C@@H]1O` [Compound-40, (1S,2R,5R)-3-(2-(2-amino-3-chloro-5-fluoroquinolin-7-yl)ethyl)-5-(4-amino-7H-pyrrolo[2,3-d]pyrimidin-7-yl)-2-ethylcyclopent-3-ene-1,2-diol], for which, in the test on PANC-1 cells, the IC50 was in the range of 300 to 20000 pM.
With `Nc1nc2cc(CCC3=C[C@@H](n4ccc5c(N)ncnc54)[C@H](O)[C@@H]3O)ccc2cc1F` [Compound-23, (1S,2R,5R)-3-(2-(2-Amino-3-fluoroquinolin-7-yl)ethyl)-5-(4-amino-7H-pyrrolo[2,3-d]pyrimidin-7-yl)cyclopent-3-ene-1,2-diol], the pIC50 on PRMT5:MEP50 is 9.02 to 9.52.
Still for that read-out and setting: the figure for `Cc1ncnc2c1ccn2[C@@H]1C=C(C(C)Cc2cc(F)c3cc(Cl)c(N)nc3c2)[C@@](C)(O)[C@H]1O` (single isomer, unassigned) [Compound-36a] is 9.02 to 9.52.
On to `CC(Cc1cc(F)c2cc(Br)c(N)nc2c1)C1=C[C@@H](n2ccc3c(N)ncnc32)[C@H](O)[C@@H]1O` (single isomer, unassigned) [Compound-45a], for which the pIC50 on PRMT5:MEP50 is 9.02 to 9.52.
In the case of `Nc1nc2cc(CCC3=C[C@@H](n4ccc5c(N)ncnc54)[C@H](O)[C@@H]3O)cc(F)c2cc1Br` [Compound-43, (1S,2R,5R)-3-(2-(2-Amino-3-bromo-5-fluoroquinolin-7-yl)ethyl)-5-(4-amino-7H-pyrrolo[2,3-d]pyrimidin-7-yl)cyclopent-3-ene-1,2-diol], the IC50 with PANC-1 cells was 300 to 20000 pM. The pIC50 on PRMT5:MEP50 was 9.02 to 9.52.
As for `CCc1ncnc2c1ccn2[C@@H]1C=C(CCc2cc(F)c3cc(Cl)c(N)nc3c2)[C@@H](O)[C@H]1O` [Compound-41, (1S,2R,5R)-3-(2-(2-amino-3-chloro-5-fluoroquinolin-7-yl)ethyl)-5-(4-ethyl-7H-pyrrolo[2,3-d]pyrimidin-7-yl)cyclopent-3-ene-1,2-diol], the IC50 with PANC-1 cells was in the range of 300 to 20000 pM.
Consider `Cc1ncnc2c1ccn2[C@@H]1C=C(CCc2cc(F)c3cc(Br)c(N)nc3c2)[C@@H](O)[C@H]1O` [Compound-44, (1S,2R,5R)-3-(2-(2-Amino-3-bromo-5-fluoroquinolin-7-yl)ethyl)-5-(4-methyl-7H-pyrrolo[2,3-d]pyrimidin-7-yl)cyclopent-3-ene-1,2-diol], for which the pIC50 at PRMT5:MEP50 was 9.02 to 9.52.
Same read-out and setting: the figure for `Nc1nc2cc(CCC3=C[C@@H](n4ccc5cnccc54)[C@H](O)[C@@H]3O)cc(F)c2cc1Cl` [Compound-15, (1S,2R,5R)-3-(2-(2-Amino-3-chloro-5-fluoroquinolin-7-yl)ethyl)-5-(1H-pyrrolo[3,2-c]pyridin-1-yl)cyclopent-3-ene-1,2-diol] is 9.02 to 9.52.
